Measured values published in PubChem BioAssay AID330 (DTP/NCI, 2004).
“And” between values parts separate entries of the source, which are not always exact repeats. Equal values may be shown once. Toxic doses and inconclusive results are not listed. How the source made its calls: active means survival T/C of 150% or more; inactive means T/C below 125% in these data.

System: P388 leukemia ip, CD2F1 mice, survival T/C
Experiment: NCI In Vivo Anticancer Drug Screen. Data for tumor model P388 Leukemia (intraperitoneal) in CD2F1 (CDF1) mice
Details: endpoint: median survival time, higher = longer survival
Outline: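 Mice carrying the transplanted tumor received test compound or vehicle. Survival was recorded in each group, and the value is the treated-group measurement divided by that of the vehicle-treated control group.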

[1] = dose: 50.0 mg/kg/injection, schedule: Q01DX005 (ip), vehicle: Klucel (hydroxypropylcellulose) (HPC)
[2] = dose: 50.0 mg/kg/injection, schedule: Q01DX009 (ip), vehicle: saline with Tween-80
[3] = dose: 100.0 mg/kg/injection, schedule: Q01DX009 (ip), vehicle: saline with Tween-80

Measured: T/C

CC(C)CC1C(=O)OC(C(C)C)C(=O)N(C)C(CC(C)C)C(=O)OC(C(C)C)C(=O)N(C)C(CC(C)C)C(=O)OC(C(C)C)C(=O)N(C)C(CC(C)C)C(=O)OC(C(C)C)C(=O)N1C (configuration not stated)
inactive: dose: 1.0 mg/kg/injection, schedule: Q01DX009 (ip), vehicle: saline with Tween-80 99 % of control | dose: 2.0 mg/kg/injection, schedule: Q01DX009 (ip), vehicle: saline with Tween-80 90 % of control | dose: 4.0 mg/kg/injection, schedule: Q01DX009 (ip), vehicle: saline with Tween-80 101 % of control | dose: 8.0 mg/kg/injection, schedule: Q01DX009 (ip), vehicle: saline with Tween-80 101 % of control | dose: 16.0 mg/kg/injection, schedule: Q01DX009 (ip), vehicle: saline with Tween-80 96 % of control

COc1cc(C=Nc2cccc3c2NCCC3)cc(OC)c1OC
inactive: dose: 100.0 mg/kg/injection, schedule: Q01DX001 (ip), vehicle: saline with Tween-80 105 % of control | dose: 200.0 mg/kg/injection, schedule: Q01DX001 (ip), vehicle: saline with Tween-80 98 % of control | dose: 400.0 mg/kg/injection, schedule: Q01DX001 (ip), vehicle: saline with Tween-80 98 % of control

NC(=O)CCSC(N)=S
inactive: [1] 100 % of control | dose: 100.0 mg/kg/injection, schedule: Q01DX005 (ip), vehicle: Klucel (hydroxypropylcellulose) (HPC) 109 % of control | dose: 200.0 mg/kg/injection, schedule: Q01DX005 (ip), vehicle: Klucel (hydroxypropylcellulose) (HPC) 100 % of control

C/C=C(/C)C(=O)O[C@H]1CC[C@@]2(C)[C@@H]3CC[C@H]4[C@]5(O)C[C@H](O)[C@@]6(O)[C@@H](CN7C[C@@H](C)CC[C@H]7[C@@]6(C)O)[C@]5(O)C[C@@]42O[C@@]13O
inactive: dose: 0.39 mg/kg/injection, schedule: Q01DX009 (ip), vehicle: saline with Tween-80 97 % of control | dose: 0.5 mg/kg/injection, schedule: Q01DX009 (ip), vehicle: saline 95 % of control | dose: 0.78 mg/kg/injection, schedule: Q01DX009 (ip), vehicle: saline with Tween-80 101 % of control | dose: 1.0 mg/kg/injection, schedule: Q01DX009 (ip), vehicle: saline 109 % of control | dose: 1.56 mg/kg/injection, schedule: Q01DX009 (ip), vehicle: saline with Tween-80 101 % of control | dose: 2.0 mg/kg/injection, schedule: Q01DX009 (ip), vehicle: saline 109 % of control | dose: 3.12 mg/kg/injection, schedule: Q01DX009 (ip), vehicle: saline with Tween-80 97 % of control | dose: 6.25 mg/kg/injection, schedule: Q01DX009 (ip), vehicle: saline with Tween-80 88 % of control

O=C(OCc1ccccc1)SS(=O)(=O)O
inactive: dose: 50.0 mg/kg/injection, schedule: Q01DX009 (ip), vehicle: Klucel (hydroxypropylcellulose) (HPC) 95 % of control | dose: 100.0 mg/kg/injection, schedule: Q01DX009 (ip), vehicle: Klucel (hydroxypropylcellulose) (HPC) 110 % of control | dose: 200.0 mg/kg/injection, schedule: Q01DX009 (ip), vehicle: Klucel (hydroxypropylcellulose) (HPC) 119 % of control

CSc1nc(NC2OCC(OC(C)=O)C(OC(C)=O)C2OC(C)=O)c(N=CC=Nc2c(NC3OCC(OC(C)=O)C(OC(C)=O)C3OC(C)=O)nc(SC)[nH]c2=O)c(=O)[nH]1 (configuration not stated)
inactive: dose: 60.0 mg/kg/injection, schedule: Q01DX005 (ip), vehicle: saline with Tween-80 90 % of control | dose: 120.0 mg/kg/injection, schedule: Q01DX005 (ip), vehicle: saline with Tween-80 92 % of control | dose: 240.0 mg/kg/injection, schedule: Q01DX005 (ip), vehicle: saline with Tween-80 89 % of control

c1ccc(C2=C([P+](c3ccccc3)(c3ccccc3)c3ccccc3)CCO2)cc1
inactive: dose: 1.56 mg/kg/injection, schedule: Q01DX009 (ip), vehicle: saline 110 % of control and 117 % of control | dose: 2.6 mg/kg/injection, schedule: Q01DX009 (ip), vehicle: saline 114 % of control | dose: 3.13 mg/kg/injection, schedule: Q01DX009 (ip), vehicle: saline 119 % of control and 120 % of control | dose: 4.0 mg/kg/injection, schedule: Q01DX009 (ip), vehicle: saline 114 % of control | dose: 6.0 mg/kg/injection, schedule: Q01DX009 (ip), vehicle: saline 117 % of control | dose: 6.25 mg/kg/injection, schedule: Q01DX009 (ip), vehicle: saline 124 % of control | dose: 9.0 mg/kg/injection, schedule: Q01DX009 (ip), vehicle: saline 118 % of control | dose: 12.5 mg/kg/injection, schedule: Q01DX009 (ip), vehicle: saline 100 % of control and 109 % of control

CC(C)(CCC(C)(C)NCCCN)NCCCN
inactive: dose: 3.13 mg/kg/injection, schedule: Q01DX009 (ip), vehicle: water 115 % of control | dose: 6.25 mg/kg/injection, schedule: Q01DX009 (ip), vehicle: water 112 % of control | dose: 12.5 mg/kg/injection, schedule: Q01DX009 (ip), vehicle: water 102 % of control | dose: 25.0 mg/kg/injection, schedule: Q01DX009 (ip), vehicle: water 103 % of control | dose: 50.0 mg/kg/injection, schedule: Q01DX009 (ip), vehicle: water 97 % of control

Cc1cn(CCCOc2c3occc3cc3ccc(=O)oc23)c(=O)[nH]c1=O
inactive: dose: 12.5 mg/kg/injection, schedule: Q01DX005 (ip), vehicle: Klucel (hydroxypropylcellulose) (HPC) 86 % of control | dose: 25.0 mg/kg/injection, schedule: Q01DX005 (ip), vehicle: Klucel (hydroxypropylcellulose) (HPC) 96 % of control | [1] 88 % of control

COc1cccc(CN2CCN(/N=C/c3c4c(O)c5c(O)c(C)c6c(c5c3O)C(=O)C(C)(O/C=C/C(OC)C(C)C(OC(C)=O)C(C)C(O)C(C)C(O)C(C)/C=C/C=C(C)C(=O)N4)O6)CC2)c1 (configuration not stated)
inactive: dose: 12.5 mg/kg/injection, schedule: Q01DX009 (ip), vehicle: saline with Tween-80 120 % of control | dose: 25.0 mg/kg/injection, schedule: Q01DX009 (ip), vehicle: saline with Tween-80 118 % of control | [2] 112 % of control and 117 % of control | [3] 121 % of control

OC1CCC2CC2C1 (configuration not stated)
inactive: dose: 50.0 mg/kg/injection, schedule: Q01DX009 (ip), vehicle: saline 108 % of control | dose: 100.0 mg/kg/injection, schedule: Q01DX009 (ip), vehicle: saline 102 % of control | dose: 200.0 mg/kg/injection, schedule: Q01DX009 (ip), vehicle: saline 108 % of control

CCC(CO)N=C(C1=C(O)c2ccccc2C1=O)c1ccccc1 (configuration not stated)
inactive: dose: 100.0 mg/kg/injection, schedule: Q04DX002 (ip), vehicle: saline with Tween-80 104 % of control | dose: 200.0 mg/kg/injection, schedule: Q04DX002 (ip), vehicle: saline with Tween-80 92 % of control

CCCCCCCCCCCC(=O)NC1CCS(=O)(=O)C1 (configuration not stated)
inactive: dose: 37.5 mg/kg/injection, schedule: Q01DX009 (ip), vehicle: Klucel (hydroxypropylcellulose) (HPC) 99 % of control | dose: 75.0 mg/kg/injection, schedule: Q01DX009 (ip), vehicle: Klucel (hydroxypropylcellulose) (HPC) 96 % of control | dose: 150.0 mg/kg/injection, schedule: Q01DX009 (ip), vehicle: Klucel (hydroxypropylcellulose) (HPC) 97 % of control | dose: 300.0 mg/kg/injection, schedule: Q01DX009 (ip), vehicle: Klucel (hydroxypropylcellulose) (HPC) 95 % of control

CCCCCCCOCC(=O)O
inactive: [2] 100 % of control | [3] 94 % of control

C/C=N/NCCC#N
inactive: dose: 6.25 mg/kg/injection, schedule: Q01DX005 (ip), vehicle: saline 100 % of control | dose: 12.5 mg/kg/injection, schedule: Q01DX005 (ip), vehicle: saline 100 % of control | dose: 25.0 mg/kg/injection, schedule: Q01DX005 (ip), vehicle: saline 90 % of control

CC(=O)OCC1OC(n2c(Br)nc3c(N)ncnc32)C(OC(C)=O)C1OC(C)=O (configuration not stated)
inactive: dose: 50.0 mg/kg/injection, schedule: Q01DX005 (ip), vehicle: saline with Tween-80 103 % of control | dose: 100.0 mg/kg/injection, schedule: Q01DX005 (ip), vehicle: saline with Tween-80 101 % of control | dose: 200.0 mg/kg/injection, schedule: Q01DX005 (ip), vehicle: saline with Tween-80 97 % of control
